Patent publication US20250034135A1, “ANTI-APOPTOTIC PROTEIN BCL-2 INHIBITOR, PHARMACEUTICAL COMPOSITION AND USES THEREOF” (HANGZHOU HEALZEN THERAPEUTICS CO., LTD., priority 2021, published 2025)

Target: BCL2 (Homo sapiens (Human), UniProt P10415)
Assay: Molecular level activity test of anti-apoptotic protein BCL2 (HTRF, binding to Bim peptide)
Conditions: HTRF, binding of BCL2 to Bim peptide; read-out: BCL2 nM (inhibitory activity, IC50)
How it was run: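 Competition binding format: recombinant His-BCL2 and a biotin-Bim peptide are incubated with compound for 1 h, followed by 4 h at room temperature with HTRF detection antibodies.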

Chain of BCL2 (P10415 whole entry): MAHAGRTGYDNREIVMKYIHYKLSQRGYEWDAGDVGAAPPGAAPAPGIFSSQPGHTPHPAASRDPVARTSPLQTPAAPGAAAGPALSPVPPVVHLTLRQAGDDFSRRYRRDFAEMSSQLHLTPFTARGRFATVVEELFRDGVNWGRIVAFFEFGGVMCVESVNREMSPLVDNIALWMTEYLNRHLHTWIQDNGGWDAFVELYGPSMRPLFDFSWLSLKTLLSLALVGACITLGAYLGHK

IC50 [µM]	Compound
< 0.01	COc1ccc(CN2CCN(C3CC4(CCN(c5cc(Oc6cnc7[nH]ccc7c6)c(C(=O)NS(=O)(=O)c6cc([N+](=O)[O-])c(NC[C@H]7CC[C@](C)(O)CC7)c7c6OCCO7)cc5F)CC4)C3)[C@H](c3ccccc3C(C)C)C2)cc1 [compound 118, 2-((1H-pyrrolo[2,3-b]pyrid-5-yl)oxy)-5-fluoro-N-((8-((((1r, 4r)-4-hydroxy-4-methylcyclohexyl)methyl)amino)-7-nitro-2,3-dihydrobenzo[b][1,4]dioxan-5-yl)sulfonyl)-4-(2-((R)-2-(2-isopropylphenyl)-4-(4-methoxybenzyl)piperazin-1-yl)-7-azaspiro[3.5]non-7-yl)benzamide]
< 0.01	CC(C)c1ccccc1[C@@H]1CN(Cc2cccnc2)CCN1C1CC2(CCN(c3cc(Oc4cnc5[nH]ccc5c4)c(C(=O)NS(=O)(=O)c4ccc(NC[C@H]5CC[C@](C)(O)CC5)c([N+](=O)[O-])c4)cc3F)CC2)C1 [compound 232, 2-((1H-pyrrolo[2,3-b]pyrid-5-yl)oxy)-5-fluoro-N-((4-((((1r, 4r)-4-hydroxy-4-methylcyclohexyl)methyl)amino)-3-nitrophenyl)sulfonyl)-4-(2-((R)-2-(2-isopropylphenyl)-4-(pyrid-3-ylmethyl)piperazin-1-yl)-7-azaspiro[3.5]non-7-yl)benzamide]
< 0.01	CC(C)c1ccccc1[C@@H]1CN(Cc2cccc(F)c2F)CCN1C1CC2(CCN(c3cc(Oc4cnc5[nH]ccc5c4)c(C(=O)NS(=O)(=O)c4ccc(NC[C@H]5CC[C@](C)(O)CC5)c([N+](=O)[O-])c4)cc3F)CC2)C1 [compound 218, 2-((1H-pyrrolo[2,3-b]pyrid-5-yl)oxy)-4-(2-((R)-4-(2,3-difluorobenzyl)-2-(2-isopropylphenyl)piperazin-1-yl)-7-azaspiro[3.5]non-7-yl)-5-fluoro-N-((4-((((1r, 4r)-4-hydroxy-4-methylcyclohexyl)methyl)amino)-3-nitrophenyl)sulfonyl)benzamide]
< 0.01	COc1ccc(CN2CCN(C3CC4(CCN(c5cc(Oc6cnc7[nH]ccc7c6)c(C(=O)NS(=O)(=O)c6cc([N+](=O)[O-])c(NC[C@H]7CC[C@](C)(O)CC7)c7[nH]cnc67)cc5F)CC4)C3)C(c3ccccc3C(C)C)C2)cc1 (stereo partly drawn) [compound 071, 2-((1H-pyrrolo[2,3-b]pyrid-5-yl)oxy)-5-fluoro-N-((7-((((1r,4r)-4-hydroxy-4-methylcyclohexyl)methyl)amino)-6-nitro-1H-benzo[d]imidazol-4-yl)sulfonyl)-4-(2-(2-(2-isopropylphenyl)-4-(4-methoxybenzyl)piperazin-1-yl)-7-azaspiro[3.5]non-7-yl)benzamide]
< 0.01	COc1ccc(CN2CCN(C3CC4(CCN(c5ccc(C(=O)NS(=O)(=O)c6cc([N+](=O)[O-])c(NC[C@H]7CC[C@](C)(O)CC7)c7c6OCO7)c(Oc6cnc7[nH]ccc7c6)c5)CC4)C3)[C@H](c3ccccc3C(C)C)C2)cn1 [compound 174, 2-((1H-pyrrolo[2,3-b]pyrid-5-yl)oxy)-N-((7-((((1r, 4r)-4-hydroxy-4-methylcyclohexyl)methyl)amino)-6-nitrobenzo[d][1,3]dioxocyclopent-4-yl)sulfonyl)-4-(2-((R)-2-(2-isopropylphenyl)-4-((6-methoxypyrid-3-yl)methyl)piperazin-1-yl)-7-azaspiro[3.5]non-7-yl)benzamide]
< 0.01	COc1ccc(CN2CCN(C3CC4(C3)CN(c3cc(Oc5cnc6[nH]ccc6c5)c(C(=O)NS(=O)(=O)c5cc([N+](=O)[O-])c(NC[C@H]6CC[C@](C)(O)CC6)c6[nH]cnc56)cc3F)C4)C(c3ccccc3C(C)C)C2)cc1 (stereo partly drawn) [compound 072, 2-((1H-pyrrolo[2,3-b]pyrid-5-yl)oxy)-5-fluoro-N-((7-((((1r,4r)-4-hydroxy-4-methylcyclohexyl)methyl)amino)-6-nitro-1H-benzo[d]imidazol-4-yl)sulfonyl)-4-(6-(2-(2-isopropylphenyl)-4-(4-methoxybenzyl)piperazin-1-yl)-2-azaspiro[3.3]hept-2-yl)benzamide]
< 0.01	COc1ccc(CN2CCN(C3CC4(CCN(c5cc(Oc6cnc7[nH]ccc7c6)c(C(=O)NS(=O)(=O)c6ccc(NC[C@H]7CC[C@](C)(O)CC7)c([N+](=O)[O-])c6)cc5F)CC4)C3)[C@H](c3ccccc3C(C)C)C2)c2c1OCCO2 [compound 228, 2-((1H-pyrrolo[2,3-b]pyrid-5-yl)oxy)-5-fluoro-N-((4-((((1r, 4r)-4-hydroxy-4-methylcyclohexyl)methyl)amino)-3-nitrophenyl)sulfonyl)-4-(2-((R)-2-(2-isopropylphenyl)-4-((8-methoxy-2,3-dihydrobenzo[b][1,4]dioxan-5-yl)methyl)piperazin-1-yl)-7-azaspiro[3.5]non-7-yl)benzamide]
< 0.01	CC(C)c1ccccc1[C@@H]1CN(Cc2ccc(F)cc2)CCN1C1CC2(CCN(c3cc(Oc4cnc5[nH]ccc5c4)c(C(=O)NS(=O)(=O)c4ccc(NC[C@H]5CC[C@](C)(O)CC5)c([N+](=O)[O-])c4)cc3F)CC2)C1 [compound 215, 2-((1H-pyrrolo[2,3-b]pyrid-5-yl)oxy)-5-fluoro-4-(2-((R)-4-(4-fluorobenzyl)-2-(2-isopropylphenyl)piperazin-1-yl)-7-azaspiro[3.5]non-7-yl)-N-((4-((((1r, 4r)-4-hydroxy-4-methylcyclohexyl)methyl)amino)-3-nitrophenyl)sulfonyl)benzamide]

Continued, compound first:

Compound	IC50 [µM]
COc1ccc(CN2CCN(C3CC4(CCN(c5ccc(C(=O)NS(=O)(=O)c6cc([N+](=O)[O-])c(NC[C@H]7CC[C@](C)(O)CC7)c7[nH]cnc67)c(Oc6cnc7[nH]cc(F)c7c6)c5)CC4)C3)C(c3ccccc3C(C)C)C2)cn1 (stereo partly drawn) [compound 049, 2-((3-fluoro-1H-pyrrolo[2,3-b]pyrid-5-yl)oxy)-N-((7-((((1r,4r)-4-hydroxy-4-methylcyclohexyl)methyl)amino)-6-nitro-1H-benzo[d]imidazol-4-yl)sulfonyl)-4-(2-(2-(2-isopropylphenyl)-4-((6-methoxypyrid-3-yl)methyl)piperazin-1-yl)-7-azaspiro[3.5]non-7-yl)benzamide]	< 0.01
CC(C)c1ccccc1[C@@H]1CCCN1C1CC2(CCN(c3cc(Oc4cnc5[nH]ccc5c4)c(C(=O)NS(=O)(=O)c4cc([N+](=O)[O-])c(NC[C@H]5C[C@@](C)(O)C5)c5[nH]cnc45)cn3)CC2)C1 [compound 017, 4-((1H-pyrrolo[2,3-b]pyrid-5-yl)oxy)-N-((7-((((1S,3S)-3-hydroxy-3-methylcyclobutyl)methyl)amino)-6-nitro-1H-benzo[d]imidazol-4-yl)sulfonyl)-6-(2-((S)-2-(2-isopropylphenyl)pyrrolidin-1-yl)-7-azaspiro[3.5]non-7-yl) nicotinamide]	< 0.01
CC(C)c1ccccc1[C@@H]1CCCN1C1CC2(CCN(c3cc(Oc4cnc5[nH]ccc5c4)c(C(=O)NS(=O)(=O)c4cc([N+](=O)[O-])c(NC[C@H]5CC[C@](C)(O)CC5)c5c4ncn5C)cn3)CC2)C1 [compound 035, 4-((1H-pyrrolo[2,3-b]pyrid-5-yl)oxy)-N-((7-((((1r,4r)-4-hydroxy-4-methylcyclohexyl)methyl)amino)-1-methyl-6-nitro-1H-benzo[d]imidazol-4-yl)sulfonyl)-6-(2-((S)-2-(2-isopropylphenyl)pyrrolidin-1-yl)-7-azaspiro[3.5]non-7-yl) nicotinamide]	< 0.01
COc1ccc(CN2CCN(C3CC4(CCN(c5ccc(C(=O)NS(=O)(=O)c6cc([N+](=O)[O-])c(NCC7CCOCC7)c7[nH]cnc67)c(N6CCOc7nc8[nH]ccc8cc76)c5)CC4)C3)C(c3ccccc3C(C)C)C2)cc1 (stereo not drawn) [compound 091, 2-(2,3-dihydropyrrolo[3′,2′:5,6]pyridino[2,3-b][1,4]oxazin-1 (6H)-yl)-4-(2-(2-(2-isopropylphenyl)-4-(4-methoxybenzyl)piperazin-1-yl)-7-azaspiro[3.5]non-7-yl)-N-((6-nitro-7-(((tetrahydro-2H-pyran-4-yl)methyl)amino)-1H-benzo[d]imidazol-4-yl)sulfonyl)benzamide]	< 0.01
COc1ccc(CN2CCN(C3CC4(CCN(c5cc(Oc6cnc7[nH]ccc7c6)c(C(=O)NS(=O)(=O)c6cc([N+](=O)[O-])c(NCC7CCOCC7)c7[nH]cnc67)cn5)CC4)C3)C(c3ccccc3C(C)C)C2)cc1 (stereo not drawn) [compound 075, 4-((1H-pyrrolo[2,3-b]pyrid-5-yl)oxy)-6-(2-(2-(2-isopropylphenyl)-4-(4-methoxybenzyl)piperazin-1-yl)-7-azaspiro[3.5]non-7-yl)-N-((6-nitro-7-(((tetrahydro-2H-pyran-4-yl)methyl)amino)-1H benzo[d]imidazol-4-yl)sulfonyl) nicotinamide]	< 0.01
CC(C)c1ccccc1[C@@H]1CCCN1C1CC2(CCN(c3ccc(C(=O)NS(=O)(=O)c4cc([N+](=O)[O-])c(NC[C@H]5CC[C@](C)(O)CC5)c5[nH]ccc45)c(Oc4cnc5[nH]ccc5c4)c3)CC2)C1 [compound 009, 2-((1H-pyrrolo[2,3-b]pyrid-5-yl)oxy)-N-((7-((((1r,4r)-4-hydroxy-4-methylcyclohexyl)methyl)amino)-6-nitro-1H-indol-4-yl)sulfonyl)-4-(2-((S)-2-(2-isopropylphenyl)pyrrolidin-1-yl)-7-azaspiro[3.5]non-7-yl)benzamide]	< 0.01
COc1ccc(CN2CCN(C3CC4(CCN(c5cc(Oc6cnc7[nH]ccc7c6)c(C(=O)NS(=O)(=O)c6cc([N+](=O)[O-])c(NCC7(F)CCOCC7)c7occc67)cn5)CC4)C3)[C@H](c3ccccc3C(C)C)C2)cc1 [compound 135, (R)-4-((1H-pyrrolo[2,3-b]pyrid-5-yl)oxy)-N-((7-(((4-fluorotetrahydro-2H-pyran-4-yl)methyl)amino)-6-nitrobenzofuran-4-yl)sulfonyl)-6-(2-(2-(2-isopropylphenyl)-4-(4-methoxybenzyl)piperazin-1-yl)-7-azaspiro[3.5]non-7-yl) nicotinamide]	< 0.01
